This note sets out measurements from US10874743B2, “IRAK degraders and uses thereof” (Kymera Therapeutics, Inc., priority 2017, dated 2020).

The experiment concerns the target T1, IRAK4 (Homo sapiens, UniProt Q9NWZ3).
T1 sequence (Q9NWZ3 1-460): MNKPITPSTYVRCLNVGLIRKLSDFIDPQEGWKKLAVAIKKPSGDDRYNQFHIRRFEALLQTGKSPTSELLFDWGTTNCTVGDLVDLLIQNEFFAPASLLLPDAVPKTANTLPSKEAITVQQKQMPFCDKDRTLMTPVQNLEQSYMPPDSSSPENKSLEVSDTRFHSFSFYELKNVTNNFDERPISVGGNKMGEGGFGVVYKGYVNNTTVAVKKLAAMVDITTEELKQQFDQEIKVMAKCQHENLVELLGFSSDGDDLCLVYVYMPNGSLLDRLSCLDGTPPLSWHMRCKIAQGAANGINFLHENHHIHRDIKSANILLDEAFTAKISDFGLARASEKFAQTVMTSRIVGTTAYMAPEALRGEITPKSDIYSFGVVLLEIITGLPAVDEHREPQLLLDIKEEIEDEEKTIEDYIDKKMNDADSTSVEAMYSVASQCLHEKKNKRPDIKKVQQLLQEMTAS
Description: THP-1 degradation assay (western blot, % IRAK4 degraded after 24 hours). The settings on record: THP-1 cells. The format is cell-based. Set-up: endogenous in cells. How it is done: Compounds were reconstituted in DMSO to make stock solutions at concentration of 60 mM. THP-1 and OCI-LY10 cells were maintained in RPMI-1640 medium containing 10% FBS, 0.5 μM 2-ME or 20% FBS, 55 μM 2-ME, and 1% L-Glutamine respectively.
Cells were seeded into 6-well plates with 5e6 cells per well. 200 μL of diluted compounds were added to cells to the final concentration of 0.003-10 μM. After 4 or 24 hour-incubation at 37° C., cells were collected into 2 mL Eppendorf tubes and centrifuged at 1,000 rpm for 5 min. The cell pellets were washed with 1×DPBS once and resuspended in 60 μL lysis buffer. The cells were lysed on ice for 10 min, then centrifuged at 14,000 rpm for 10 min at 4° C. and the supernatants were collected for western blots. For THP-1 cells, the lysis buffer contained 40 mM pH 7.4 HEPES, 140 mM NaCl, 2.5 mM EDTA, 1% NP-40, 0.1% SDS, and protease inhibitor cocktail (Roche, Cat. No. 05892791001). For OCI-LY10 cells, RIPAbuffer (Thermo Fisher, 89900) with Halt Protease and Phosphatase Inhibitor Cocktail (Thermo Fisher, 78446) was applied.
The protein concentration of cell lysates was quantified with Pierce™ BCA Protein Assay Kit (Pierce, 23227). Albumin standards at different concentrations were prepared, involving 2,000 ug/mL, 1,500 ug/mL, 1,000 ug/mL, 750 ug/mL, 500 ug/mL, 250 ug/mL, 125 ug/mL, and 25 ug/mL. BCA working reagents were prepared by mixing BCA reagent A with reagent B in 50:1 ratio. 200 μL of the BCA working reagents were added to 25 μL of BCA standard or cell lysates in microplate, and mixed thoroughly on a plate shaker for 30 seconds. After incubation at 37° C. for 30 min, the absorbance of samples at 562 nm were measured with EnVision Plate Reader.
Protein lysates were prepared in NuPAGE™ LDS sample buffer and NuPAGE™ sample reducing agent, and incubated at 95° C. for 5 min. For western blots, 20-25 μg of total proteins were resolved in 4-12% Bis-Tris gels (Introgen, WG1403A) or 10% Bis-Tris Midi gels (Invitrogen, WG1202BOX) running with 1×MOPS SDS running buffer (Invitrogen, NP0001) or 1×MES SDS running buffer (Invitrogen, NP0002). The proteins were transferred to low fluorescence PVDF membranes using the Trans-Blot Turbo Transfer System. Membranes were then blocked in Odyssey blocking buffer at RT for 1 h followed by primary incubation at 4° C. overnight. The primary antibodies were IRAK1 rabbit monoclonal antibody (CST, #4504S, 1:500), IRAK3 rabbit polyclonal antibody (CST, #4369, 1:500), IRAK4 rabbit polyclonal antibody (CST, #4363S, 1:1,000), MyD88 rabbit monoclonal antibody (Abcam, Ab133739, 1:2,000), j3-actin mouse monoclonal antibody (Sigma, A5441, 10,000), and Gapdh mouse monoclonal antibody (Millipore, MAB374, 1:5,000). Membranes were washed three times with 1×TBST, and then incubated with IR Dye 800 CW Goat anti-rabbit (Licor, #926-32211) and IR Dye 700 CW Goat anti-mouse (Licor, #926-68070) secondary antibodies in 1:10,000 dilution at RT for 1 h. The western blot images were obtained using Odyssey Imaging System.
THP-1 results at 24 hours. The letter codes indicate the percentage of IRAK4 degraded after 24 hours: A (>50% degradation), B (>20-50% degradation) and C (<20% degradation)
(Immunoblotting shows a protein as a band on a membrane.)
As for `Cc1ncsc1-c1ccc(CNC(=O)[C@@H]2C[C@@H](O)CN2C(=O)[C@H](NC(=O)CCCCNC(=O)[C@H]2CC[C@H](NC(=O)c3cnc(Nc4ccc5cnccc5n4)cc3NC3CC3)CC2)C(C)(C)C)cc1` [I-15], the “THP-1 24 h % IRAK4 Degradation” value was “A (>50% degradation)”.

Turning to `O=C(COc1cccc2c1C(=O)N(C1CCC(=O)NC1=O)C2=O)NCCOCCOCCNC(=O)[C@H]1C[C@H](NC(=O)c2cnc(Nc3ccc4cnccc4n3)cc2NC2CC2)C1` (some centres unmarked) [I-16], the “THP-1 24 h % IRAK4 Degradation” value is “C (<20% degradation)”.

In the case of `O=C(CN1CCC(NC(=O)c2cnc(Nc3ccc4cnccc4n3)cc2NC2CC2)CC1)NCCOCCOCCNc1cccc2c1C(=O)N(C1CCC(=O)NC1=O)C2=O` (centres unmarked) [I-19, 6-((1,6-naphthyridin-2-yl)amino)-4-(cyclopropylamino)-N-(1-(2-((2-(2-(2-((2-(2,6-dioxopiperidin-3-yl)-1,3-dioxoisoindolin-4-yl)amino)ethoxy)ethoxy)ethyl)amino)-2-oxoethyl)piperidin-4-yl)nicotinamide], the “THP-1 24 h % IRAK4 Degradation” value is reported as “C (<20% degradation)”.

For `O=C1CCC(N2C(=O)c3cccc(NCCOCCNC(=O)[C@H]4CC[C@H](NC(=O)c5cnc(Nc6ccc7cnccc7n6)cc5NC5CC5)CC4)c3C2=O)C(=O)N1` (some centres unmarked) [I-25, 6-((1,6-naphthyridin-2-yl)amino)-4-(cyclopropylamino)-N-((1r,4r)-4-((2-(2-((2-(2,6-dioxopiperidin-3-yl)-1,3-dioxoisoindolin-4-yl)amino)ethoxy)ethyl)carbamoyl)cyclohexyl)nicotinamide], the “THP-1 24 h % IRAK4 Degradation” value is reported as “B (>20-50% degradation)”.

For the compound `O=C1CCC(N2C(=O)c3cccc(NCCCOCCCNC(=O)[C@H]4CC[C@H](NC(=O)c5cnc(Nc6ccc7cnccc7n6)cc5NC5CC5)CC4)c3C2=O)C(=O)N1` (stereo partly drawn) [I-30, 6-((1,6-naphthyridin-2-yl)amino)-4-(cyclopropylamino)-N-((1R,4R)-4-((3-(3-((2-(2,6-dioxopiperidin-3-yl)-1,3-dioxoisoindolin-4-yl)amino)propoxy)propyl)carbamoyl)cyclohexyl)nicotinamide], the “THP-1 24 h % IRAK4 Degradation” value is “C (<20% degradation)”.

For `CN(CCOCCOCCNc1cccc2c1C(=O)N(C1CCC(=O)NC1=O)C2=O)C(=O)[C@H]1CC[C@H](NC(=O)c2cnc(Nc3ccc4cnccc4n3)cc2NC2CC2)CC1` (stereo partly drawn) [I-40, 6-((1,6-naphthyridin-2-yl)amino)-4-(cyclopropylamino)-N-((1R,4R)-4-((2-(2-(2-((2-(2,6-dioxopiperidin-3-yl)-1,3-dioxoisoindolin-4-yl)amino)ethoxy)ethoxy)ethyl)(methyl)carbamoyl)cyclohexyl)nicotinamide], the “THP-1 24 h % IRAK4 Degradation” value was “C (<20% degradation)”.

Take `O=C1CCC(N2C(=O)c3cccc(NCCOCCOCCOCC(=O)N4CCC(NC(=O)c5cnc(Nc6ccc7cnccc7n6)cc5NC5CC5)CC4)c3C2=O)C(=O)N1` (centres unmarked) [I-43, 6-((1,6-naphthyridin-2-yl)amino)-4-(cyclopropylamino)-N-(1-(2-(2-(2-(2-((2-(2,6-dioxopiperidin-3-yl)-1,3-dioxoisoindolin-4-yl)amino)ethoxy)ethoxy)ethoxy)acetyl)piperidin-4-yl)nicotinamide]: the “THP-1 24 h % IRAK4 Degradation” value is reported as “C (<20% degradation)”.

Consider `O=C1CCC(N2C(=O)c3cccc(NCCOCCOCCOCCOCCN4CCN(CCOCC(F)CNC(=O)c5cnc(Nc6ccc7cnccc7n6)cc5NC5CC5)CC4)c3C2=O)C(=O)N1` (centres unmarked) [I-47], for which the “THP-1 24 h % IRAK4 Degradation” value is “B (>20-50% degradation)”.

On to `O=C1CCC(N2C(=O)c3cccc(NCCOCCOCCOCCOCCOCC(F)CNC(=O)c4cnc(Nc5ccc6cnccc6n5)cc4NC4CC4)c3C2=O)C(=O)N1` (centres unmarked) [I-48], for which the “THP-1 24 h % IRAK4 Degradation” value was “B (>20-50% degradation)”.

For the compound `O=C1CCC(N2C(=O)c3cccc(NCCOCCOCCOCC(F)CNC(=O)c4cnc(Nc5ccc6cnccc6n5)cc4NC4CC4)c3C2=O)C(=O)N1` (centres unmarked) [I-49], the “THP-1 24 h % IRAK4 Degradation” value is recorded as “B (>20-50% degradation)”.

For `O=C1CCC(N2C(=O)c3cccc(NCCOCCOCCOCCOCC(F)CNC(=O)c4cnc(Nc5ccc6cnccc6n5)cc4NC4CC4)c3C2=O)C(=O)N1` (centres unmarked) [I-50], the “THP-1 24 h % IRAK4 Degradation” value is recorded as “B (>20-50% degradation)”.
